Laboratory results taken from ChEMBL document CHEMBL1201862, “PubChem BioAssay data set” (2004).
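Five compound concentrations were applied to cells in 96-well plates for 48 hours; endpoints were derived by simple linear interpolation of the resulting dose-response curve. Here, GI50 denotes the concentration required for 50% inhibition of growth.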 Calls of active or inactive are those of the source. Rule as the data show it: active = GI50 up to about 1.1 µM and inactive = higher.

Experiments:
Experiment in all cases: NCI anticancer screen, dose series, 48 h
A498 = system: A498
UACC-62 = system: UACC-62
ACHN = system: ACHN
SK-MEL-28 = system: SK-MEL-28
786-0 = system: 786-0
NCI-H522 = system: NCI-H522
PC-3 = system: PC-3
RPMI-8226 = system: RPMI-8226
IGROV-1 = system: IGROV-1
LOX IMVI = system: LOX IMVI
SK-MEL-5 = system: SK-MEL-5
OVCAR-3 = system: OVCAR-3
DU-145 = system: DU-145
RXF 393 = system: RXF 393
HT-29 = system: HT-29
HOP-62 = system: HOP-62
K562 = system: K562
SK-OV-3 = system: SK-OV-3
NCI-H23 = system: NCI-H23
COLO 205 = system: COLO 205

SMILES | GI50 (A498) | GI50 (UACC-62) | GI50 (ACHN) | GI50 (SK-MEL-28) | GI50 (786-0) | GI50 (NCI-H522) | GI50 (PC-3) | GI50 (RPMI-8226) | GI50 (IGROV-1) | GI50 (LOX IMVI) | GI50 (SK-MEL-5) | GI50 (OVCAR-3) | GI50 (DU-145) | GI50 (RXF 393) | GI50 (HT-29) | GI50 (HOP-62) | GI50 (K562) | GI50 (SK-OV-3) | GI50 (NCI-H23) | GI50 (COLO 205)
CCC(=O)Nc1ccc(NCC(=O)Nc2ccc(Cl)cc2)cc1 | 17.7 µM (inactive) | 12.4 µM (inactive) | 13.3 µM (inactive) | 19.9 µM (inactive) | 17.2 µM (inactive) | 15 µM (inactive) | 15.1 µM (inactive) | 21.2 µM (inactive) | 18.4 µM (inactive) | 13.1 µM (inactive) | 15.8 µM (inactive) | 15.7 µM (inactive) | 17.9 µM (inactive) | 16.5 µM (inactive) | 10.6 µM (inactive) | 13.7 µM (inactive) | 24 µM (inactive) | 16.9 µM (inactive) | 18.5 µM (inactive) | 16.9 µM (inactive)
CC(C)C[C@H](NC(=O)CCc1cccc2ccccc12)B(O)O | 0.497 µM (active) | 1.3 µM (inactive) | 0.498 µM (active) | 0.716 µM (active) | 0.923 µM (active) | 1.24 µM (inactive) | 3.9 µM (inactive) | 0.331 µM (active) | 2.13 µM (inactive) | 0.461 µM (active) | 0.457 µM (active) | 0.463 µM (active) | 4.62 µM (inactive) | 0.54 µM (active) | 0.628 µM (active) | 3.22 µM (inactive) | 2.34 µM (inactive) | 8.73 µM (inactive) | 1.16 µM (inactive) | 4.59 µM (inactive)
N=C(N)C(/N=N\c1ccccc1)C(=N)N (stereo not given) | 54.5 µM (inactive) | 34.5 µM (inactive) | 64.9 µM (inactive) | 49.1 µM (inactive) | 35.6 µM (inactive) | 36 µM (inactive) | 31.8 µM (inactive) | 27.9 µM (inactive) | 33.2 µM (inactive) | 34 µM (inactive) | 28 µM (inactive) | 38.5 µM (inactive) | > 100 µM (inactive) | > 100 µM (inactive) | 29.8 µM (inactive) | 61.7 µM (inactive) | 23.7 µM (inactive) | 64.6 µM (inactive) | 50.4 µM (inactive) | 29.8 µM (inactive)
CCCN1CN(c2ccccc2)C2(CCN(CCCC(=O)c3ccc(F)cc3)CC2)C1=O | 0.933 µM (active) | 16.3 µM (inactive) | 2.13 µM (inactive) | 19.2 µM (inactive) | 5.15 µM (inactive) | 20.3 µM (inactive) | 10.2 µM (inactive) | 12.4 µM (inactive) | 2.54 µM (inactive) | 4.41 µM (inactive) | 1.44 µM (inactive) | 13.8 µM (inactive) | 1.53 µM (inactive) | 16.8 µM (inactive) | 0.631 µM (active) | 2.7 µM (inactive) | 16.3 µM (inactive) | 19.1 µM (inactive) | 4.12 µM (inactive) | 0.169 µM (active)
COP(=O)(OC)/C(=C/c1cn(C(c2ccccc2)(c2ccccc2)c2ccccc2)cn1)NC=O | 16.6 µM (inactive) | 18.7 µM (inactive) | 12.1 µM (inactive) | 33.4 µM (inactive) | 29.4 µM (inactive) | 15.5 µM (inactive) | 17 µM (inactive) | 32 µM (inactive) | 20.5 µM (inactive) | 15.9 µM (inactive) | 13.7 µM (inactive) | 14.9 µM (inactive) | 21.6 µM (inactive) | 16.3 µM (inactive) | 16.4 µM (inactive) | 17.7 µM (inactive) | 84.9 µM (inactive) | 34 µM (inactive) | 19.5 µM (inactive) | 15.4 µM (inactive)
COc1cc2c3c(c1)c1cc(OC)c(OC)cc1c[n+]3CC2 | > 50 µM (inactive) | 19.1 µM (inactive) | > 50 µM (inactive) | 22.8 µM (inactive) | 1.61 µM (inactive) | 0.927 µM (active) | 25.8 µM (inactive) | 18.7 µM (inactive) | 17.5 µM (inactive) | 28.7 µM (inactive) | 13.6 µM (inactive) | 12.5 µM (inactive) | 31.8 µM (inactive) | 27.9 µM (inactive) | 23 µM (inactive) | 5.73 µM (inactive) | 10 µM (inactive) | > 50 µM (inactive) | 7.29 µM (inactive) | 7.29 µM (inactive)
C[C@@H](NC(=O)c1ccc(CNC(=O)/C=C/c2cccc(Oc3ccccc3)c2)cc1)c1ccccc1 | 31 µM (inactive) | > 82.6 µM (inactive) | 12.5 µM (inactive) | > 100 µM (inactive) | 13.9 µM (inactive) | > 66.7 µM (inactive) | > 42.4 µM (inactive) | > 100 µM (inactive) | 48.1 µM (inactive) | > 100 µM (inactive) | 99.8 µM (inactive) | 72.1 µM (inactive) | > 100 µM (inactive) | 2.51 µM (inactive) | 22.6 µM (inactive) | 17.9 µM (inactive) | > 100 µM (inactive) | > 93.1 µM (inactive) | > 100 µM (inactive) | > 100 µM (inactive)
O=c1cc(CNC2CC3CCC2C3)[nH]c(=O)[nH]1 (stereo not given) | > 100 µM (inactive) | > 100 µM (inactive) | > 100 µM (inactive) | > 100 µM (inactive) | > 100 µM (inactive) | > 100 µM (inactive) | > 100 µM (inactive) | > 100 µM (inactive) | > 100 µM (inactive) | > 100 µM (inactive) | > 100 µM (inactive) | > 100 µM (inactive) | > 100 µM (inactive) | > 100 µM (inactive) | > 100 µM (inactive) | > 100 µM (inactive) | > 100 µM (inactive) | > 100 µM (inactive) | > 100 µM (inactive) | > 100 µM (inactive)
COc1ccc(C(=O)N/N=C2\C(=O)c3c(C)cc(C)cc3CC2(C)C)cc1 | 19.9 µM (inactive) | 15.1 µM (inactive) | 24.1 µM (inactive) | 19.7 µM (inactive) | 18.6 µM (inactive) | 15.3 µM (inactive) | 22.2 µM (inactive) | 17.1 µM (inactive) | 16.1 µM (inactive) | 17.7 µM (inactive) | 16.7 µM (inactive) | 15.6 µM (inactive) | 24.2 µM (inactive) | 16.6 µM (inactive) | 18.4 µM (inactive) | 18 µM (inactive) | 16.7 µM (inactive) | 29.2 µM (inactive) | 29.5 µM (inactive) | 21.8 µM (inactive)
C=CCN(c1cc(OCc2ccccc2)c(NC(C)=O)cc1[N+](=O)[O-])S(C)(=O)=O | 19.3 µM (inactive) | 58.9 µM (inactive) | 52.7 µM (inactive) | > 100 µM (inactive) | 20.6 µM (inactive) | 35.5 µM (inactive) | > 100 µM (inactive) | 46.7 µM (inactive) | 21.1 µM (inactive) | 50.6 µM (inactive) | > 100 µM (inactive) | 34.9 µM (inactive) | > 100 µM (inactive) | 18.7 µM (inactive) | > 100 µM (inactive) | 22 µM (inactive) | > 100 µM (inactive) | 17.9 µM (inactive) | 18.4 µM (inactive) | > 100 µM (inactive)
COc1ccc2nccc(NCCCN3CCN(CCCNc4ccnc5ccc(OC)cc45)CC3)c2c1 | 2.58 µM (inactive) | 0.918 µM (active) | 1.45 µM (inactive) | 1.09 µM (active) | 0.582 µM (active) | 0.0334 µM (active) | 0.44 µM (active) | 0.264 µM (active) | 0.283 µM (active) | 0.272 µM (active) | 1.06 µM (active) | 1.22 µM (inactive) | 0.508 µM (active) | 1.32 µM (inactive) | 0.172 µM (active) | 0.966 µM (active) | 0.228 µM (active) | 1.53 µM (inactive) | 0.51 µM (active) | 0.261 µM (active)
O=C1Nc2cccc(Cl)c2/C1=C\c1c(Cl)nc2n1CCS2 | > 100 µM (inactive) | 73.5 µM (inactive) | > 100 µM (inactive) | > 100 µM (inactive) | > 100 µM (inactive) | > 100 µM (inactive) | > 100 µM (inactive) | > 100 µM (inactive) | > 100 µM (inactive) | > 100 µM (inactive) | > 100 µM (inactive) | > 100 µM (inactive) | > 100 µM (inactive) | 53.2 µM (inactive) | > 100 µM (inactive) | > 100 µM (inactive) | > 100 µM (inactive) | > 100 µM (inactive) | > 100 µM (inactive) | > 100 µM (inactive)
COc1cccc2c1C(=O)c1c(O)c3c(c(O)c1C2=O)C[C@H](O)C[C@@H]3OC1CC(N)C(O)C(C)O1 (stereo not given in full) | < 0.01 µM (active) | 0.255 µM (active) | 1.17 µM (inactive) | 1.7 µM (inactive) | 1.32 µM (inactive) | 1.57 µM (inactive) | 2.09 µM (inactive) | 1.22 µM (inactive) | 1.57 µM (inactive) | 0.229 µM (active) | 0.522 µM (active) | 1.85 µM (inactive) | 1.76 µM (inactive) | 6.58 µM (inactive) | 2.09 µM (inactive) | 1.49 µM (inactive) | 1.79 µM (inactive) | 2.13 µM (inactive) | 1.06 µM (active) | 0.508 µM (active)
N#CC1=C(C#N)/C(=C(\C#N)C(C#N)C#N)N=C1N | 25.9 µM (inactive) | 15.1 µM (inactive) | 33.3 µM (inactive) | 21.1 µM (inactive) | 39.4 µM (inactive) | 13.8 µM (inactive) | 28.7 µM (inactive) | 32.6 µM (inactive) | 50.1 µM (inactive) | 19.1 µM (inactive) | 17.3 µM (inactive) | 34.5 µM (inactive) | 38.9 µM (inactive) | 31.9 µM (inactive) | 23.5 µM (inactive) | 26.7 µM (inactive) | 31.5 µM (inactive) | 57.9 µM (inactive) | 32.1 µM (inactive) | 26.9 µM (inactive)
